Source: BindingDB's records for doi:10.1016/j.bmcl.2004.10.005 (Bristol Myers Squibb, 2004)

Target: T1, Neuropeptide Y receptor type 1 (Homo sapiens, UniProt P25929)
T1 sequence (P25929 whole entry): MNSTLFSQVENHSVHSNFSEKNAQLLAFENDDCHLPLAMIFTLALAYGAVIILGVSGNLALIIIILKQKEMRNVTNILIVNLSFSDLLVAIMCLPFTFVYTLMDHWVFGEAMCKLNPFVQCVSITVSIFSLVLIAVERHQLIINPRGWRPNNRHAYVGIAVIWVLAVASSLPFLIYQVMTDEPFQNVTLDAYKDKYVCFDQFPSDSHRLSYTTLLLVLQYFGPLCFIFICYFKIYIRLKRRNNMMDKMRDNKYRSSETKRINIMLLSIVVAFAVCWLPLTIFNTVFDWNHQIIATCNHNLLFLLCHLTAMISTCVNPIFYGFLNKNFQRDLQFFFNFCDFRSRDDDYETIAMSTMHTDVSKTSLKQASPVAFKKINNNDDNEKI
Experiment: Inhibition of binding of [125I]PYY to membranes of SK-N-MC cells expressing the human Y1 receptors

Row | IC50 | SMILES
1 | 4 nM | COC(=O)C1=C(C)N=C(C)C(C(=O)OC)C1c1cccc(NC(=O)NCCNC2CCN(c3ccccc3C)CC2)c1 (stereo unspecified) [2,6-Dimethyl-4-(3-{3-[2-(1-o-tolyl-piperidin-4-ylamino)-ethyl]-ureido}-phenyl)-1,4-dihydro-pyridine-3,5-dicarboxylic acid dimethyl ester]
2 | 2 nM | COC(=O)C1=C(C)N=C(C)C(C(=O)OC)C1c1cccc(NC(=O)NCCNC2CCN(c3ccccc3)CC2)c1 (stereo unspecified) [2,6-Dimethyl-4-(3-{3-[2-(1-phenyl-piperidin-4-ylamino)-ethyl]-ureido}-phenyl)-1,4-dihydro-pyridine-3,5-dicarboxylic acid dimethyl ester]
3 | 5 nM | COC(=O)C1=C(C)N=C(C)C(C(=O)OC)C1c1cccc(NC(=O)NCCNC2CCN(c3ccccc3SC)CC2)c1 (stereo unspecified) [2,6-Dimethyl-4-[3-(3-{2-[1-(2-methylsulfanyl-phenyl)-piperidin-4-ylamino]-ethyl}-ureido)-phenyl]-1,4-dihydro-pyridine-3,5-dicarboxylic acid dimethyl ester]
4 | 2 nM | COC(=O)C1=C(C)NC(C)=C(C(=O)OC)C1c1cccc(NC(=O)NCCNC2CCN(c3ccccc3[N+](=O)[O-])CC2)c1 [2,6-Dimethyl-4-[3-(3-{2-[1-(2-nitro-phenyl)-piperidin-4-ylamino]-ethyl}-ureido)-phenyl]-1,4-dihydro-pyridine-3,5-dicarboxylic acid dimethyl ester]
5 | 3 nM | COC(=O)C1=C(C)N=C(C)C(C(=O)OC)C1c1cccc(NC(=O)NCCNC2CCN(c3ccccc3C#N)CC2)c1 (stereo unspecified) [4-[3-(3-{2-[1-(2-Cyano-phenyl)-piperidin-4-ylamino]-ethyl}-ureido)-phenyl]-2,6-dimethyl-1,4-dihydro-pyridine-3,5-dicarboxylic acid dimethyl ester]
6 | 8 nM | COC(=O)C1=C(C)N=C(C)C(C(=O)OC)C1c1cccc(NC(=O)NCCNC2CCN(c3cccc(Cl)c3)CC2)c1 (stereo unspecified) [4-[3-(3-{2-[1-(3-Chloro-phenyl)-piperidin-4-ylamino]-ethyl}-ureido)-phenyl]-2,6-dimethyl-1,4-dihydro-pyridine-3,5-dicarboxylic acid dimethyl ester]
7 | 8 nM | COC(=O)C1=C(C)N=C(C)C(C(=O)OC)C1c1cccc(NC(=NC#N)NCCNC2CCN(c3cccc(Cl)c3)CC2)c1 (stereo unspecified) [N-arylpiperazine derivative]
8 | 3 nM | COC(=O)C1=C(C)N=C(C)C(C(=O)OC)C1c1cccc(NC(=NC#N)NCCNC2CCN(c3ccccc3C#N)CC2)c1 (stereo unspecified) [N-arylpiperazine derivative]
9 | 4 nM | COC(=O)C1=C(C)N=C(C)C(C(=O)OC)C1c1cccc(NC(=NC#N)NCCNC2CCN(c3ccccc3C)CC2)c1 (stereo unspecified) [N-arylpiperazine derivative]
10 | 3 nM | COC(=O)C1=C(C)N=C(C)C(C(=O)OC)C1c1cccc(NC(=NC#N)NCCNC2CCN(c3ccccc3SC)CC2)c1 (stereo unspecified) [N-arylpiperazine derivative]
11 | 4 nM | COC(=O)C1=C(C)NC(C)=C(C(=O)OC)C1c1cccc(NC(=NC#N)NCCNC2CCN(c3ccccc3[N+](=O)[O-])CC2)c1 [N-arylpiperazine derivative]
